By MIC is commonly meant the lowest concentration that inhibits growth of the organism.

≈ marks a conversion by molar mass, not a printed value. Read-outs that look alike come from different tables or passages of the source. A value given as a limit tells only on which side of the number the result lay.

Common to all, as to test: in vitro antibacterial MIC, agar plate dilution
Common to all, as to format: cell-based

In assay [1] the test system is Escherichia coli ATCC 25922. The conditions noted are these: 35° C. Here is the method:
(§1) The in vitro antimicrobial spectrum of the compounds of ths invention were determined by the agar plate dilution method with Mueller-Hinton agar and an inoculum of each test organism of approximately 10^4 colony forming units delivered by the Steers replicating device. The minimal inhibitory concentration (MIC) in mcg/ml is defined as the lowest concentration of test compound that inhibited visible growth after 18 hours incubation at 35° C. Results are given in Table I, with the test compounds identified by the number of their hereinafter described examples.

The test system of assay [2] is Staphylococcus aureus Smith. The conditions noted are these: 35° C. Here is the method: as §1
Assay [3] deals with Streptococcus faecalis VGH 84-65. The conditions noted are these: Enterococcus faecalis, VGH8465, 18 h, 35° C., read-out: MIC. On the procedure: as §1
Assay [4] concerns Staphylococcus aureus ATTC 29213. The note with it: Staphylococcus aureus, ATTC29213, 18 h, 35° C., read-out: MIC. On the procedure: as §1
For assay [5], the system named is Morganella morganii CMC 84-37. The conditions noted are these: Morganella morganii, CMC8437, 18 h, 35° C., read-out: MIC. Here is the method: as §1
In assay [6] the test system is Proteus rettgeri CMC 84-41. The note with it: Providencia rettgeri, CMC8441, 18 h, 35° C., read-out: MIC. Here is the method: as §1
Assay [7] deals with Serratia marcescens VGH 84-30. The conditions noted are these: Serratia marcescens, VGH8430, 18 h, 35° C., read-out: MIC. On the procedure:
as §1

The test system of assay [8] is Pseudomonas aeruginosa LL-1244. The conditions noted are these: Pseudomonas aeruginosa, LL1244, 18 h, 35° C., read-out: MIC. On the procedure: as §1
The subject of assay [9] is Escherichia coli CMC 84-11. The note with it: 35° C. Here is the method:
as §1

Assay [10] concerns Staphylococcus aureus VGH 84-45. The conditions noted are these: Staphylococcus aureus, VGH8445, 18 h, 35° C., read-out: MIC. Here is the method:
as §1

The subject of assay [11] is Streptococcus faecalis UCI 85-19. The note with it: Enterococcus faecalis, UCI8519, 18 h, 35° C., read-out: MIC. Here is the method:
as §1

The test system of assay [12] is Pseudomonas aeruginosa VGH 84-4. The note with it: Pseudomonas aeruginosa, VGH844, 18 h, 35° C., read-out: MIC. Here is the method: as §1
Assay [13] relates to Escherichia coli LL 311. The conditions noted are these: Escherichia coli, LL311, 18 h, 35° C., read-out: MIC. Here is the method:
as §1

Assay [14] deals with Serratia marcescens K 84-18. The conditions noted are these: Serratia marcescens, K8418, 18 h, 35° C., read-out: MIC. On the procedure: as §1
Assay [15] concerns Klebsiella pneumoniae AD. The note with it: Klebsiella pneumoniae, 18 h, 35° C., read-out: MIC. On the procedure: as §1
Assay [16] has as its system Klebsiella pneumoniae MOR 84-4. The note with it: Klebsiella pneumoniae, MOR844, 18 h, 35° C., read-out: MIC. On the procedure: as §1
The test system of assay [17] is Morganella morganii VGH 84-11. The conditions noted are these: VGH8411, 18 hours, 35° C., read-out: MIC. On the procedure: as §1
In assay [18] the test system is Enterobacter cloacae VGH 84-37. The conditions noted are these: Enterobacter cloacae, VGH8437, 18 h, 35° C., read-out: MIC. Here is the method: as §1
In assay [19] the test system is Enterobacter aerogenes VGH 84-36. The note with it: Klebsiella aerogenes, VGH8436, 18 hours, 35° C., read-out: MIC. On the procedure: as §1
Assay [20] relates to Staphylococcus aureus ATCC 25913. The note with it: ATCC25913, 18 hours, 35° C. Here is the method: as §1
Assay [21] concerns Streptococcus faecalis ATTC 29212. The note with it: Enterococcus faecalis, ATTC29212, 18 hours, 35° C., read-out: MIC. On the procedure: as §1
Where [22] appears, read: Escherichia coli, ATCC25922, 18 h, read-out: MIC.
The mark [23] stands for this setting: Staphylococcus aureus, 18 h, read-out: MIC.
The mark [24] stands for this setting: Escherichia coli, CMC8411, 18 h, read-out: MIC.

As to `CCn1cc(C(=O)O)c(=O)c2cc(F)c(N3CCN(C)C(CF)C3)c(F)c21` (racemic) [Example 113, Racemic 1-Ethyl-6,8-difluoro-7-[3-(fluoromethyl)-4-methyl-1-piperazinyl]-1,4-dihydro-4-oxo-3-quinolinecarboxylic acid], the MIC in assay [1] (setting [22]) came out at 0.25 µg/mL (≈ 0.652 µM); in assay [2] (setting [23]) it was 0.25 µg/mL (≈ 0.652 µM); in assay [3] it was 8 µg/mL (≈ 20.9 µM); in [4], 8 µg/mL (≈ 20.9 µM); in [5], 1 µg/mL (≈ 2.61 µM); in [6] it was 2 µg/mL (≈ 5.22 µM). In addition, the MIC in assay [7] amounted to 16 µg/mL (≈ 41.7 µM); in assay [8] it was 32 µg/mL (≈ 83.5 µM); in assay [9] (setting [24]), 0.25 µg/mL (≈ 0.652 µM); in [10], 0.25 µg/mL (≈ 0.652 µM); in assay [11] it was 8 µg/mL (≈ 20.9 µM); in [12], 8 µg/mL (≈ 20.9 µM). For the same molecule, the results for the MIC in assay [13] and in assay [14] were 0.5 µg/mL (≈ 1.3 µM) and 2 µg/mL (≈ 5.22 µM), respectively.
Turning to `CCn1cc(C(=O)O)c(=O)c2cc(F)c(N3CCN(C)C(CF)C3)c(F)c21` (single isomer, unassigned) [Example 114, (-1-1-Ethyl-6,8-difluoro-7-[3-fluoromethyl)-4-methyl-1-piperazinyl]-1,4-dihydro-4-oxo-3-quinolinecarboxylic acid], the minimum inhibitory concentration (MIC) in [1] (18 hours) worked out at 0.12 µg/mL (≈ 0.313 µM); in assay [2] (18 hours) it was 0.12 µg/mL (≈ 0.313 µM); in assay [3] it was 4 µg/mL (≈ 10.4 µM); in assay [4], 8 µg/mL (≈ 20.9 µM); in [5], 1 µg/mL (≈ 2.61 µM); in assay [6] it was 2 µg/mL (≈ 5.22 µM). Besides, the MIC in assay [7] amounted to 16 µg/mL (≈ 41.7 µM); in assay [8], 16 µg/mL (≈ 41.7 µM); in [9] (18 hours), 0.12 µg/mL (≈ 0.313 µM); in assay [10], 0.25 µg/mL (≈ 0.652 µM); in [11] it was 4 µg/mL (≈ 10.4 µM); in assay [12], 8 µg/mL (≈ 20.9 µM). Besides, the minimum inhibitory concentration (MIC) in assay [13] is 0.25 µg/mL (≈ 0.652 µM); in assay [14], 1 µg/mL (≈ 2.61 µM).
For `CCn1cc(C(=O)O)c(=O)c2cc(F)c(N3CCNC(c4cc(C)sc4C)C3)cc21` (stereo not shown) [Example 48, 7-[3-(2,5-Dimethyl-3-thienyl)-1-piperazinyl]-1-ethyl-6-fluoro-1,4-dihydro-4-oxo-3-quinolinecarboxylic acid], the MIC in assay [1] (setting [22]) came out at 1 µg/mL (≈ 2.33 µM); in assay [15], 1 µg/mL (≈ 2.33 µM); in assay [16], 2 µg/mL (≈ 4.66 µM); in assay [17], 2 µg/mL (≈ 4.66 µM); in assay [18], 2 µg/mL (≈ 4.66 µM); in assay [2] (setting [23]), 0.25 µg/mL (≈ 0.582 µM). Also, the minimal inhibitory concentration (MIC) in assay [19] was 2 µg/mL (≈ 4.66 µM); in [20], 0.25 µg/mL (≈ 0.582 µM); in [6], 2 µg/mL (≈ 4.66 µM); in assay [9] (setting [24]), 1 µg/mL (≈ 2.33 µM); in assay [12], 32 µg/mL (≈ 74.5 µM); in assay [21], 0.25 µg/mL (≈ 0.582 µM).
As to `CCn1cc(C(=O)O)c(=O)c2cc(F)c(N3CCN(C)C(c4ccn(S(=O)(=O)c5ccccc5)c4)C3)cc21` (stereo not shown) [Example 49], the minimum inhibitory concentration (MIC) is 32 µg/mL (≈ 59.4 µM) in assay [1] (setting [22]); 64 µg/mL (≈ 119 µM) in assay [15]; 256 µg/mL (≈ 475 µM) in assay [16]; 256 µg/mL (≈ 475 µM) in [17]; 256 µg/mL (≈ 475 µM) in assay [18]; 0.5 µg/mL (≈ 0.928 µM) in assay [2] (setting [23]). The MIC in assay [19] is 256 µg/mL (≈ 475 µM); in assay [20], 1 µg/mL (≈ 1.86 µM); in [6] it was 256 µg/mL (≈ 475 µM); in assay [9] (setting [24]) it was 64 µg/mL (≈ 119 µM); in [12], greater than 256 µg/mL; in assay [21] it was 64 µg/mL (≈ 119 µM).
Consider `CCn1cc(C(=O)O)c(=O)c2cc(F)c(N3CCNC(c4cc(Cl)sc4Cl)C3)cc21` (stereo not shown) [Example 51], for which the MIC in assay [1] (setting [22]) came out at 8 µg/mL (≈ 17 µM); in assay [15], 8 µg/mL (≈ 17 µM); in [16], 16 µg/mL (≈ 34 µM); in assay [17], 8 µg/mL (≈ 17 µM); in [18] it was 16 µg/mL (≈ 34 µM); in [2] (setting [23]), 0.5 µg/mL (≈ 1.06 µM). The minimal inhibitory concentration (MIC) in assay [19] is 64 µg/mL (≈ 136 µM); in [20], 1 µg/mL (≈ 2.13 µM); in assay [6], 8 µg/mL (≈ 17 µM); in assay [9] (setting [24]), 8 µg/mL (≈ 17 µM); in assay [12], greater than 256 µg/mL; in [21], 32 µg/mL (≈ 68 µM).

(Values after patent publication US5210193A, “Piperazine derivatives” (American Cyanamid Company, priority 1990, dated 1993).)
